“And” between values parts separate entries of the source, which are not always exact repeats. Identical values can stand only once. Like-named read-outs stand apart in the source and are kept apart here.
Assays:
promastigote = test system: promastigote; parameters: method as in PMID 27503653; conditions: read-out: Anti-promastigote EC50; cited from earlier work
amastigote = test system: amastigote; parameters: method as in PMID 27503653; conditions: read-out: Anti-amastigote EC50; cited from earlier work
[1] = test system: bisubunit DNA topoisomerase IB of L. donovani; parameters: method as in PMID 27503653; conditions: cited from earlier work
Leishmania = test system: Leishmania; parameters: method as in PMID 34311084; conditions: cited from earlier work
[2] = test system: L. major promastigote form; assay: In vitro antileishmanial activity, promastigote form; format: cell-based, Leishmania major; conditions: read-out: Antipromastigotes IC50, µM ± SD
Procedure: All synthesised compounds were evaluated against L. major promastigote form.
(§1) We used both promastigote and amastigote forms of L. major strain for the in vitro evaluation. All experimental steps were carried out as reported earlier[35]^,[36]. The value of the compound concentration causing 50% inhibition (IC50) was calculated. The software employed is Graph Pad Prism 6 software (GraphPad Software, San Diego, CA, USA).

[3] = test system: L. major axenic amastigote form; assay: In vitro antileishmanial activity, axenic amastigote form; format: cell-based, Leishmania major
Procedure: as §1

VERO cells = assay: In vitro cytotoxicity testing on VERO cells; conditions: for SI (selectivity index; SI = CC50/IC50): CC50 VERO cells / antileishmanial IC50; for CC50 (VERO cells) higher than IC50 (promastigotes): VERO cells versus promastigotes of leishmania parasite
[4] = In vitro cytotoxicity testing on VERO cells; conditions: African green monkey
[5] = test system: L. major promastigote (folate pathway, DHFR and PTR1); assay: Reversal of antileishmanial activity by folic acid and folinic acid (folate pathway inhibition); format: cell-based, Leishmania major; conditions: for Percentage survival, Folic acid 100 µM / Percentage survival, No Cpd added: test compound above its IC50 (trimethoprim 100 µM); for Percentage survival, No Cpd added: no folic or folinic acid; for Percentage survival, Folic acid 20µM: test compound above its IC50, folic acid 20µM; for Percentage survival, Folinic acid 20 µM: test compound above its IC50, folinic acid 20 µM; for Percentage survival, Folinic acid 100 µM: test compound above its IC50, folinic acid 100 µM
Procedure: It is worthy to mention that folic acid competes for the active sites of both DHFR and PTR1 while folinic acid involves in DNA synthesis without any necessity to undergo activation.
This experiment was performed on the in vitro growth assay for the promastigote and based on the previously published methodology. All experimental steps were performed as reported earlier.

[6] = Leishmania major, L. major promastigote, 50% growth inhibition
[7] = Leishmania major, L. major axenic amastigote, 50% growth inhibition, read-out: Antiamastigote IC50, µM ± SD
[8] = Leishmania major, read-out: Antiamastigote IC50, µM ± SD, L. major axenic amastigote, 50% growth inhibition
[9] = VERO cells (African green monkey kidney cells)

In the case of `COC(=O)C1CC2CCCN2C12C(=O)N(Cc1ccccc1)c1ccccc12` (stereo not drawn) [B], the EC50 (promastigote) is given as 1.24 to 1.41 µM, the EC50 (amastigote) is given as 0.53 to 0.9 µM and the “inhibition of bisubunit DNA topoisomerase IB” value [1] is given as “catalytic inhibitor”.

In the case of `CN(C)c1ccc(/C=N/N2C(=O)C(C#N)=CC23c2ccccc2Nc2ccccc23)cc1` [C], the “Antileishmanial EC50” value (Leishmania) is given as 0.97 µg/mL.

`O=C1NCC2(CC(c3ccccc3)N(Cc3ccccc3)C(c3ccccc3)C2)N1c1ccccc1` (stereo not drawn) [Compound 5a, 8-Benzyl-1,7,9-triphenyl-1,3,8-triazaspiro[4.5]decan-2-one] gave an IC50 [2, 6] of 5.4 ± 0.24 µM, a melting point of 128 to 130 °C and an IC50 [3, 7] of 5.45 ± 0.22 µM.

`O=C1CNCC2(CC(c3ccccc3)N(Cc3ccccc3)C(c3ccccc3)C2)N1c1ccccc1` (stereo not drawn) [Compound 6a, 9-Benzyl-1,8,10-triphenyl-1,4,9-triazaspiro[5.5]undecan-2-one] gave an IC50 ([2]; Leishmania major) of 4.42 ± 0.22 µM, a melting point of 150 to 153 °C and an IC50 [3, 8] of 4.67 ± 0.16 µM.

Compound `N#CC1=C(N)N(c2ccccc2)C2(CNC1c1ccccc1)CC(c1ccccc1)N(Cc1ccccc1)C(c1ccccc1)C2` (stereo not drawn) [Compound 7a, 8-Amino-3-benzyl-2,4,7,10-tetraphenyl-3,7,11-triazaspiro[5.6]dodec-8-ene-9-carbonitrile] has a melting point of over 300 °C.

In the case of `O=C1NC(=O)C2(CC(c3ccccc3)N(Cc3ccccc3)C(c3ccccc3)C2)N1c1ccccc1` (stereo not drawn) [Compound 8a, 8-Benzyl-1,7,9-triphenyl-1,3,8-triazaspiro[4.5]decane-2,4-dione], the “SI (selectivity index; SI = CC50/IC50)” value (VERO cells) is reported as 143.38, the “CC50 (VERO cells) higher than IC50 (promastigotes)” value (VERO cells) is reported as “at least 2 orders of magnitude” and the CC50 at 72 h [4, 9] is reported as 62.5 µg/mL and 128 µM. The “Percentage survival, Folic acid 100 µM” value [5] was 81%, the “Percentage survival, No Cpd added” value [5] was 20% and the “Percentage survival, Folic acid 20µM” value [5] was 72%. For the same compound, the “Percentage survival, Folinic acid 20 µM” value [5] was 76%, the “Percentage survival, Folinic acid 100 µM” value [5] was 87% and the IC50 [2, 6] was 1.12 ± 0.12 µM. It also gave a melting point of 188 to 190 °C, an IC50 ([3]; Leishmania major, IC50 used for the selectivity index in Table 4, read-out: Antileishmanial IC50) of 0.895 µM and an IC50 [3, 7] of 0.89 µM.

With `O=C1CNC(=O)C2(CC(c3ccccc3)N(Cc3ccccc3)C(c3ccccc3)C2)N1c1ccccc1` (stereo not drawn) [Compound 9a, 9-Benzyl-1,8,10-triphenyl-1,4,9-triazaspiro[5.5]undecane-2,5-dione] the “SI (selectivity index; SI = CC50/IC50)” value (VERO cells) was 497.37, the “CC50 (VERO cells) higher than IC50 (promastigotes)” value (VERO cells) was “at least 2 orders of magnitude” and the CC50 at 72 h [4] was 125 µg/mL and 249 µM. The “Percentage survival, Folic acid 100 µM” value [5] was 84%, the “Percentage survival, No Cpd added” value [5] was 26% and the “Percentage survival, Folic acid 20µM” value [5] was 76%. The “Percentage survival, Folinic acid 20 µM” value [5] was 80%, the “Percentage survival, Folinic acid 100 µM” value [5] was 92% and the IC50 ([2]; Leishmania major) was 0.41 ± 0.04 µM. The melting point was 201 to 203 °C, the IC50 [3, 8] was 0.5 µM and the IC50 ([3]; Leishmania major, read-out: Antileishmanial IC50 µM, IC50 used for the selectivity index in Table 4) was 0.501 µM. It also gave an IC50 ([3]; read-out: Antiamastigote IC50, µM ± SD, L. major axenic amastigote, 50% growth inhibition) of 0.501 ± 0.16 µM.

With `N=C1N(c2ccccc2)C(=O)N(c2ccccc2)C12CC(c1ccccc1)N(Cc1ccccc1)C(c1ccccc1)C2` (stereo not drawn) [Compound 11a, 8-Benzyl-4-imino-1,3,7,9-tetraphenyl-1,3,8-triazaspiro[4.5]decan-2-one] the IC50 [2, 6] was 2.44 ± 0.22 µM, the melting point was 180 to 183 °C and the IC50 [3, 7] was 4.87 ± 0.32 µM.

With `N=C1N(c2ccccc2)C(=S)N(c2ccccc2)C12CC(c1ccccc1)N(Cc1ccccc1)C(c1ccccc1)C2` (stereo not drawn) [Compound 11b, 8-Benzyl-4-imino-1,3,7,9-tetraphenyl-1,3,8-triazaspiro[4.5]decane-2-thione] the IC50 [2, 6] was 3.27 ± 0.32 µM, the melting point was 168 to 170 °C and the IC50 [3, 7] was 4.89 ± 0.34 µM.

`N=C1NNC2(CC(c3ccccc3)N(Cc3ccccc3)C(c3ccccc3)C2)S1` (stereo not drawn) [Compound 12, 8-Benzyl-7,9-diphenyl-4-thia-1,2,8-triazaspiro[4.5]decan-3-imine] showed an IC50 [2, 6] of 2.21 ± 0.22 µM and an IC50 [3, 7] of 3.43 ± 0.14 µM.

For `c1ccc(CN2C(c3ccccc3)CC3(CC2c2ccccc2)NCCN3)cc1` (stereo not drawn) [Compound 13, 8-Benzyl-7,9-diphenyl-1,4,8-triazaspiro[4.5]decane], the IC50 [2, 6] was 1.34 ± 0.14 µM, the melting point was 209 to 211 °C and the IC50 [3, 7] was 3.24 ± 0.22 µM.

For `CCCCCCCCCCCCCCCCOP(=O)([O-])OCC[N+](C)(C)C` [Miltefosine, reference compound], the “SI (selectivity index; SI = CC50/IC50)” value (VERO cells) was 12.6, the CC50 at 72 h [4, 9] was 99.7 µM and the IC50 ([2]; L. major promastigote, 50% growth inhibition) was 7.9 ± 0.28 µM. For the same compound, the IC50 [2, 6] was 7.89 µM and the IC50 [3, 7] was 8.08 ± 0.24 µM.

In the case of `COc1cc(Cc2cnc(N)nc2N)cc(OC)c1OC` [Trimethoprim, reference compound], the “Percentage survival, Folic acid 100 µM” value [5] is reported as 99% and the “Percentage survival, No Cpd added” value [5] is reported as 72%.
